Here are results for 30 compounds from ChEMBL document CHEMBL1955751, “Structure-activity relationship of the 7-hydroxy benzimidazole analogs as glycogen synthase kinase 3β inhibitor” (Bioorg Med Chem Lett, 2012).

Where only a bound is given, the exact number is not on record here.

In data set [1] the target is T1, Glycogen synthase kinase-3 beta (Homo sapiens, UniProt P49841). Kind of data set: Inhibition of GSK3-beta.
Target sequence in this assay (P49841 whole entry): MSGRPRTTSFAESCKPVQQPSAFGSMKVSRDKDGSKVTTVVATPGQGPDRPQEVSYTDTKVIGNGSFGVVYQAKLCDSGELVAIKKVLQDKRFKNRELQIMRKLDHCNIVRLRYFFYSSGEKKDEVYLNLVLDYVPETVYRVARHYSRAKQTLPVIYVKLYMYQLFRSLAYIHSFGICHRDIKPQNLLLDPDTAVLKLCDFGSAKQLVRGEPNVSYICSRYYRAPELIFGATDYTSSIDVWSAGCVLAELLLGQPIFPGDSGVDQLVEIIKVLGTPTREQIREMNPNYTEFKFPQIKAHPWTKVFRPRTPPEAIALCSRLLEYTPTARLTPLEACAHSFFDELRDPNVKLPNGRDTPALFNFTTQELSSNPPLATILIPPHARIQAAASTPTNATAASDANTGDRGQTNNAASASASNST
The target in data set [2] is T1, Glycogen synthase kinase-3 beta. The data set is described as follows: Inhibition of GSK3-beta in human RD cells. Type of data set: cell-based.
Target sequence in this assay (P49841 whole entry): as above
A short description of data set [3]: Cytotoxicity against human RD cells by MTS assay. Format: cell-based. The settings on record: read-out: CCIC50. A general note: Tetrazolium assays rely on reduction of a dye to a coloured formazan, in cell work by metabolically active cells.
The target of data set [4] is T1, Glycogen synthase kinase-3 beta. Kind of data set: Inhibition of GSK3-beta in human RD cells assessed as glycogen synthase activation measured after 24 hrs under serum starving condition. Type of data set: cell-based.
Target sequence in this assay (P49841 whole entry): as above
For data set [5] the target is unchanged. Kind of data set: Inhibition of GSK3-beta assessed as residual activity at 5 uM.
Target sequence in this assay (P49841 whole entry, looked up): as the sequence (P49841 whole entry) above
Data set [6] concerns the target Vascular endothelial growth factor receptor 2 (Homo sapiens) (UniProt P35968). The data set is described as follows: Inhibition of KDR assessed as residual activity at 5 uM.
Data set [7] is described as follows: Ratio of CCIC50 for human RD cells to EC50 for GSK3-beta in human RD cells.
The target in data set [8] is Mitogen-activated protein kinase 3 (Homo sapiens) (UniProt P27361). Kind of data set: Inhibition of ERK1 assessed as residual activity at 5 uM.
For data set [9], the target named is Cyclin-dependent kinase 1 (Homo sapiens) (UniProt P06493). The data set is described as follows: Inhibition of CDK1 assessed as residual activity at 5 uM.
For data set [10], the target named is Mitogen-activated protein kinase 1 (Homo sapiens) (UniProt P28482). The data set is described as follows: Inhibition of ERK2 assessed as residual activity at 5 uM.
Data set [11] can be described thus: Inhibition of AKT assessed as residual activity at 5 uM.
Data set [12] addresses T2, Inhibitor of nuclear factor kappa-B kinase subunit beta (Homo sapiens) (UniProt O14920).
T2 sequence (whole entry): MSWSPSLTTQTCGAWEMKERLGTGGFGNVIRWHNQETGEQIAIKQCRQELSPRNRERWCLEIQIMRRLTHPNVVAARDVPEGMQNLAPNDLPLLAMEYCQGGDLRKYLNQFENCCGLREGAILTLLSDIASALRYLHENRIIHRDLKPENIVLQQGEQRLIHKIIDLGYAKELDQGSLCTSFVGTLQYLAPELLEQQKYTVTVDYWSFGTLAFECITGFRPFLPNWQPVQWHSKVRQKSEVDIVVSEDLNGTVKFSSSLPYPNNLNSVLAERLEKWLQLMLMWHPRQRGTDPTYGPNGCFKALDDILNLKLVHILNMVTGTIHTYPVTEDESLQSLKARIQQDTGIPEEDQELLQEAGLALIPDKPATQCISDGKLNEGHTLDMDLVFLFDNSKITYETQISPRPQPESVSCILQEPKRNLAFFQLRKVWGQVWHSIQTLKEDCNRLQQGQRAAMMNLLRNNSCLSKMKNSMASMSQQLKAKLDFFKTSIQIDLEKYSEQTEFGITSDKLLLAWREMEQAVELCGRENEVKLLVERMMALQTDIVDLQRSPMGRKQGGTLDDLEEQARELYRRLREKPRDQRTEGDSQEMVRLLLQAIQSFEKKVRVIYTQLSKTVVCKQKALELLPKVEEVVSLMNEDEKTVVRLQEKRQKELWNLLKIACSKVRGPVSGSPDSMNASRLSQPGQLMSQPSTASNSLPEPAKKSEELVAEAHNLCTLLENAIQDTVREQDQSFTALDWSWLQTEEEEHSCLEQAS
Kind of data set: Inhibition of IKK-beta assessed as residual activity at 5 uM.

Data set [13] addresses Cyclin-dependent kinase 4 (Homo sapiens) (UniProt P11802). The data set is described as follows: Inhibition of CDK4 assessed as residual activity at 5 uM.

By IC50 is commonly meant the concentration at which inhibition is half-maximal. Low values mean greater potency, high ones weaker potency. For orientation: EC50 means the concentration that produces a half-maximal response.

Sequence of Cyclin-dependent kinase 4 (Homo sapiens) (P11802 whole entry): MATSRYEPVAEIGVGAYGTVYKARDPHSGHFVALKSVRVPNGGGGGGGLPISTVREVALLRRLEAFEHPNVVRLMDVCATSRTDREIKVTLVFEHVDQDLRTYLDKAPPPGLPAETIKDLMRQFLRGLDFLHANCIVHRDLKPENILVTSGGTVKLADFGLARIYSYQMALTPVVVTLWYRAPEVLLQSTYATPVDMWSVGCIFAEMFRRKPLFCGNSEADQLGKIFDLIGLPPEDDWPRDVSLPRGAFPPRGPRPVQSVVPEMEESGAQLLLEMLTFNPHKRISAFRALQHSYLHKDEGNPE
Sequence of Mitogen-activated protein kinase 1 (Homo sapiens) (P28482 whole entry): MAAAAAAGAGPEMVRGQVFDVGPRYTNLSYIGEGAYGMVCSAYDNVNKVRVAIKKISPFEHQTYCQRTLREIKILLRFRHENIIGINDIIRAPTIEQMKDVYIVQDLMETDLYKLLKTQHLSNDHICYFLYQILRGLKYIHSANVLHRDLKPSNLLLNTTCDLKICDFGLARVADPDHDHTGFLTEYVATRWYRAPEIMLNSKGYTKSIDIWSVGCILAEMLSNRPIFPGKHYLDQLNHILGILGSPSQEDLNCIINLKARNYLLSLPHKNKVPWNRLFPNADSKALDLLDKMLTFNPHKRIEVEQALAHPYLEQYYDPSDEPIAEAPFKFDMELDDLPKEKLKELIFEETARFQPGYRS
Sequence of Vascular endothelial growth factor receptor 2 (Homo sapiens) (P35968 whole entry): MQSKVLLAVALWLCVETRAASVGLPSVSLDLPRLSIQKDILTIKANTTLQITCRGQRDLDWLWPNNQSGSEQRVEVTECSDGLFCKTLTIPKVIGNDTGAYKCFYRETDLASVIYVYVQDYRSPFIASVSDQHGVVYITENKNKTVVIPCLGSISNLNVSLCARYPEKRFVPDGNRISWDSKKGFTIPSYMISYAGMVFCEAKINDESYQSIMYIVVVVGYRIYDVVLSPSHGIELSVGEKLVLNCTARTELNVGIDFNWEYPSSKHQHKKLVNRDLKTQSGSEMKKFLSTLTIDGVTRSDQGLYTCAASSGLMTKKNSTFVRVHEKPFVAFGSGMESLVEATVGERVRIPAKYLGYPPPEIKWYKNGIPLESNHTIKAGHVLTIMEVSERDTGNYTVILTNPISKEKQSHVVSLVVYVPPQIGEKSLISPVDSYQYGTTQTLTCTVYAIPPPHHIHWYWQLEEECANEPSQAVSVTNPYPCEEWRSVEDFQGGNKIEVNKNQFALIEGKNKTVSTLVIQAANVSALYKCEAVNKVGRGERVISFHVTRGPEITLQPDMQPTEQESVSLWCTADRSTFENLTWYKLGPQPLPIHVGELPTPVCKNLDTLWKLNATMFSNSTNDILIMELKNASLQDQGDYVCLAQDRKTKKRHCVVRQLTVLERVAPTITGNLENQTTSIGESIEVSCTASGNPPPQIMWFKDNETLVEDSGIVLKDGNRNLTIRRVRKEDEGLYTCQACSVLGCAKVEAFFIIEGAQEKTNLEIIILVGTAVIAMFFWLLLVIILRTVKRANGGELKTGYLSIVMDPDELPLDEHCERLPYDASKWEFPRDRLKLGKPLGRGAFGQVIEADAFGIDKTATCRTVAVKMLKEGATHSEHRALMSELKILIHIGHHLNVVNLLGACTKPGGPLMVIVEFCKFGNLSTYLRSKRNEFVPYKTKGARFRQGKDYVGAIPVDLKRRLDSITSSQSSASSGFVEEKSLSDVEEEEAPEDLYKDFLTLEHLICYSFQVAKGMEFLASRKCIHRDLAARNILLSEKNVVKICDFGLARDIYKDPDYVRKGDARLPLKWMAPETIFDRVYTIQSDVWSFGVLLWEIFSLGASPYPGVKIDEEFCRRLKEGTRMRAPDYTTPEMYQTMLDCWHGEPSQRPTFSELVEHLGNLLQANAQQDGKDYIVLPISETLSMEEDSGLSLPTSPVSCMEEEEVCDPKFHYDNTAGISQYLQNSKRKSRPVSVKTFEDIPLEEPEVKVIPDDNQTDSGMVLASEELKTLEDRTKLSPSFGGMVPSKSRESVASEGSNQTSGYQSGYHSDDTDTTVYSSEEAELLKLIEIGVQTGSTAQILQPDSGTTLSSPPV
Sequence of Cyclin-dependent kinase 1 (Homo sapiens) (P06493 whole entry, looked up): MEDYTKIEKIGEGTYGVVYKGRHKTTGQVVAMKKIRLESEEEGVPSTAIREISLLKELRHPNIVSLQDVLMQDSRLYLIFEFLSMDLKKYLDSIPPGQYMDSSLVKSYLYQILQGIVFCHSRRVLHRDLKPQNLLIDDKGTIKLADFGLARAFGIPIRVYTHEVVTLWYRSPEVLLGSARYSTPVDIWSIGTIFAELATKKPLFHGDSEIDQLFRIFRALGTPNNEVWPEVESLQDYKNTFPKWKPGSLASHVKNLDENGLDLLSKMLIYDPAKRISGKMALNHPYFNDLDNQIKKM
Sequence of Mitogen-activated protein kinase 3 (Homo sapiens) (P27361 whole entry): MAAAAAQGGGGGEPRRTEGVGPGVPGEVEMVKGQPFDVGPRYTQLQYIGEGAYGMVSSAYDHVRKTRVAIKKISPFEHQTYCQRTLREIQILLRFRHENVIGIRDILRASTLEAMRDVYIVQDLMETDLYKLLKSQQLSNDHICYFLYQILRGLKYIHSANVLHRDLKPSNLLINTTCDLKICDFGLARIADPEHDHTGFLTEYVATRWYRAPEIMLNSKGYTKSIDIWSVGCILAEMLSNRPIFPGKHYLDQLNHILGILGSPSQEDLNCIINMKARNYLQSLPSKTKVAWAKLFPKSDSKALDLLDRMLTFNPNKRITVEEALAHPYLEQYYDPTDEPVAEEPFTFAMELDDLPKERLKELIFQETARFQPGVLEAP

For `O=C(NCCc1ccc([N+](=O)[O-])cc1)c1ccc(O)c2nc(Cc3ccccc3)[nH]c12`, in data set [1], the IC50 amounted to 2000 nM.

Take `O=C(NCCCn1cnc(Cl)c1Cl)c1ccc(O)c2nc(-c3ccc(Cl)cc3Cl)[nH]c12`: the EC50 stood at 110 nM in [2] and 170 nM in data set [4]. The IC50 in data set [1] worked out at 6 nM. The CC50 in [3] turned out to be 60000 nM.

`CS(=O)(=O)Nc1ccc(CCNC(=O)c2ccc(O)c3nc(-c4ccncc4)[nH]c23)cc1` yielded an EC50 in data set [2] of 25000 nM. Also, inhibition in data set [1] was half-maximal at 110 nM (IC50).

Consider `NC(=O)c1ccc(O)c2[nH]c(Cc3ccccc3)nc12`, for which the Activity in [5] was determined as 75%.

Regarding `Cc1nc2c(O)ccc(C(=O)NCCc3ccc(NS(C)(=O)=O)cc3)c2[nH]1`, the half-maximal effective concentration (EC50) in [2] worked out at 21000 nM.

As to `CCCCNC(=O)c1ccc(O)c2[nH]c(Cc3ccccc3)nc12`, in data set [5], the Activity is 63%.

Regarding `O=C(O)COc1cccc(CCCNC(=O)c2ccc(O)c3[nH]c(-c4ccc(Cl)cc4)nc23)c1`, the Activity came out at 54.5% in [6]; 80% in data set [8]; 0.3% in data set [5]; 90.9% in data set [9]; 104% in [10]; 100% in [11]. In addition, the Activity in data set [12] worked out at 87.3%; in data set [13] it was 58.6%. In addition, in data set [7], the Ratio is reported as 68.

The compound `Cc1cn(CCCNC(=O)c2ccc(O)c3[nH]c(-c4cccs4)nc23)cn1` showed an EC50 in [2] of 310 nM. Further, the Ratio in data set [7] is over 322. In [1], this compound yielded a half-inhibitory concentration (IC50) of 50 nM. Further, the CC50 in [3] was over 100000 nM.

Consider `CS(=O)(=O)Nc1ccc(CCNC(=O)c2ccc(O)c3[nH]c(-c4ccc(F)cc4F)nc23)cc1`, for which the Activity was 114% in [6]; 73.4% in data set [8]; -0.58% in data set [5]; 91.4% in data set [10]; 93.1% in data set [12]; 49.2% in [13].

In turn, `CS(=O)(=O)Nc1ccc(CCNC(=O)c2ccc(O)c3[nH]c(-c4ccc(F)cc4)nc23)cc1` displayed an EC50 in [2] of 400 nM.

`CCN1CCN(C(=O)c2ccc(CCNC(=O)c3ccc(O)c4nc(-c5cccs5)[nH]c34)cc2)CC1` gave an EC50 in data set [2] of 400 nM. It took 46 nM to reach half-maximal inhibition in data set [1] (IC50). Further, in [3], the CC50 is 51000 nM.

In the case of `O=C(NCCCn1ccnc1)c1ccc(O)c2nc(-c3ccc(F)c(Cl)c3)[nH]c12`, the figures for the EC50 in data set [2] and in data set [4] were 490 nM and 100 nM, respectively. The CC50 in [3] was over 100000 nM.

On to `O=C(NCCCn1cnc(Cl)c1Cl)c1ccc(O)c2[nH]c(-c3ccc(Cl)cc3Cl)nc12`, for which the Activity came out at 109% in [6]; 97.9% in [8]; 0% in [5]; 102% in [10]; 80.7% in data set [12]; 74.9% in [13]. For the same compound, the Ratio in [7] is 545.

As for `O=C(NCCCn1cnc(Cl)c1Cl)c1ccc(O)c2[nH]c(-c3cccs3)nc12`, the EC50 in [2] is 34 nM. Moreover, the Ratio in data set [7] was over 2941. The same compound registered an IC50 in [1] of 8 nM. Moreover, the CC50 in data set [3] was over 100000 nM.

Turning to `Cc1ccc(S(=O)(=O)Nc2ccc(CCNC(=O)c3ccc(O)c4[nH]c(-c5ccc(F)cc5)nc34)cc2)cc1`, the midpoint of the response in [2], the EC50, lay at 95 nM. Further, the Ratio in [7] turned out to be 184. In [3], the CC50 turned out to be 17500 nM.

Consider `O=C(NCCc1ccc([N+](=O)[O-])cc1)c1ccc(O)c2[nH]c(Cc3ccccc3)nc12`, for which, in data set [5], the Activity worked out at 32%.

The compound `CS(=O)(=O)Nc1ccc(CCNC(=O)c2ccc(O)c3nc(C4CC4)[nH]c23)cc1` came in with an EC50 in data set [2] of 4800 nM. The same compound gave an IC50 in data set [1] of 140 nM.

`Cc1ccc(S(=O)(=O)Nc2ccc(CCNC(=O)c3ccc(O)c4[nH]c(Cc5ccccc5)nc34)cc2)cc1` returned a half-inhibitory concentration (IC50) in data set [1] of 2800 nM. Also, the Activity in data set [5] was 36%.

For the compound `CS(=O)(=O)Nc1ccc(CCNC(=O)c2ccc(O)c3nc(-c4ccc(F)cc4F)[nH]c23)cc1`, the EC50 was found to be 580 nM in data set [2] and 13 nM in data set [4].

The compound `CS(=O)(=O)Nc1ccc(CCNC(=O)c2ccc(O)c3[nH]c(-c4ccc(F)cc4Cl)nc23)cc1` displayed an EC50 in data set [2] of 230 nM. The same compound showed an IC50 in data set [1] of 20 nM.

Compound `O=C(NCCCn1ccnc1)c1ccc(O)c2[nH]c(-c3ccc(Cl)cc3Cl)nc12` returned an EC50 in [2] of 240 nM. In addition, the Ratio in [7] worked out at 187. The same compound gave a half-inhibitory concentration (IC50) in data set [1] of 15 nM. The CC50 in data set [3] came out at 45000 nM.

Take `O=C(NCCCn1cnc(Cl)c1Cl)c1ccc(O)c2[nH]c(-c3ccco3)nc12`: the Activity was 83.6% in data set [6]; 53.9% in [8]; -1.7% in data set [5]; 65.2% in data set [9]; 70.6% in [10]; 92.3% in data set [11]. The Activity was determined as 74.7% in data set [12] and 38.6% in [13]. Moreover, in [7], the Ratio is 1400.

On to `O=C(NCc1cccc(O)c1)c1ccc(O)c2[nH]c(Cc3ccccc3)nc12`, for which the Activity in data set [5] turned out to be 53%.

As to `CS(=O)(=O)Nc1ccc(CCNC(=O)c2ccc(O)c3[nH]c(Cc4ccccc4)nc23)cc1`, it took 3900 nM to reach a half-maximal effect in [2] (EC50). In data set [1], this compound gave an IC50 of 1600 nM. The Activity in [5] turned out to be 18%.

For the compound `O=C(NCCCn1cnc(Cl)c1Cl)c1ccc(O)c2nc(-c3ccco3)[nH]c12`, the EC50 is 50 nM in data set [2] and 40 nM in data set [4]. Also, in data set [1], the IC50 is 10 nM. Further, the CC50 in data set [3] came out at 70000 nM.

As to `O=C(O)COc1cccc(CCCNC(=O)c2ccc(O)c3nc(-c4ccc(Cl)cc4)[nH]c23)c1`, the EC50 in data set [2] was 250 nM; in data set [4], 80 nM. In data set [1], this compound had an IC50 of 31 nM. In [3], the CC50 amounted to 17000 nM.

`CS(=O)(=O)Nc1ccc(CCNC(=O)c2ccc(O)c3[nH]c(C4CCCC4)nc23)cc1` returned an EC50 in data set [2] of 2700 nM. The compound also had an IC50 in data set [1] of 44 nM.

Consider `CCN1CCN(C(=O)c2ccc(CCNC(=O)c3ccc(O)c4[nH]c(-c5cccs5)nc34)cc2)CC1`, for which the Activity came to 60.8% in data set [6]; 80.9% in [8]; 0.9% in [5]; 70.4% in data set [9]; 80.7% in data set [10]; 96% in [11]. The Activity in data set [12] came to 72.7%; in data set [13], 68.2%. Moreover, the Ratio in data set [7] worked out at 127.

Take `O=C(NCCCn1ccnc1)c1ccc(O)c2[nH]c(-c3ccc(F)c(Cl)c3)nc12`: the Activity in data set [6] came to 85.3%; in data set [8], 66.5%; in data set [5], 1%; in data set [9], 71.3%; in [10], 76%; in data set [11], 83.9%. The Activity worked out at 80% in data set [12] and 52.4% in data set [13]. Further, the Ratio in [7] is on record as over 204.

`CS(=O)(=O)Nc1ccc(CCNC(=O)c2ccc(O)c3[nH]c(-c4ccc(Cl)cc4)nc23)cc1` came in with an EC50 in data set [2] of 120 nM. In [7], the Ratio stood at 233. Also, the IC50 in [1] was 7 nM. In addition, the CC50 in data set [3] is 28000 nM.
